Measurements as given in publication PMC2603313, “Direct Inhibition of GSK3β by the Phosphorylated Cytoplasmic Domain of LRP6 in Wnt/β-Catenin Signaling” (PLoS ONE, 2008).
Entries after “also recorded” stand apart in the source; their conditions may differ. Ends that are not written are not given here.

Assays:
A549 cells [1] = assay: β-Catenin immunofluorescence in transfected A549 cells; assay type: cell-based; conditions: GFP fusion
Description: (§1) Figure 1 LRP6 constructs and their cytoplasmic overexpression in cell. (A) Schematic representation of the full-length LRP6 and amino acid sequences of LRP6 intracellular fragments used in this study. The Ser/Thr rich cluster and PPPSPxS motif are underlined in each sequence. Phosphorylated residues are highlighted. (B) Cytosolic overexpression of the LRP6 constructs. A549 cells in which control (empty vector, EV, encoding only GFP), miniCL and miniCLMT were transfected as GFP fusion proteins. Control, miniCL and miniCLMT were detected through the green fluorescence from GFP. β-Catenin was detected using an anti-β-catenin antibody, and the nuclei were detected by DAPI staining. […] Endogenous β-catenin was detected by an anti-β-catenin antibody. p-GS indicates the level of the phosphorylated GS by GSK3β, detected by anti-glycogen synthase (Ser641) antibody. p-S9-GSK3β indicates the phosphorylated Ser9 of GSK3β, and was detected by anti-phospho GSK3β (Ser9) antibody. Levels of transfected proteins were detected using monoclonal GFP antibody, indicated by GFP. Total cellular levels of GS and GSK3β were measured by anti-GS antibody and anti-GSK3β antibody, which are indicated by t-GS and t-GSK3β, respectively. […] (D) Activation of Wnt/β-catenin signaling, which was measured by the Top-flash luciferase activity. […] The luciferase activities were measured after 24 h of the transfection. […]

HepG2 cells [2] = assay: β-Catenin immunofluorescence in transfected HepG2 cells; assay type: cell-based; conditions: GFP fusion
Description: (§2) pEGFP-miniCL and pEGFP-miniCLMT vectors were transfected into A549 cells and HepG2 cells using jetpei according to the manufacturer's protocol (Polyplus transfection). In brief, 2 µg of DNA and jetpei mixtures were added to A549 cells and HepG2 cell and incubated for 3 h under serum-free conditions, and then equal volumes of DMEM containing 20% serum were added. After 24 h incubation, cells were harvested using RIPA (containing protease cocktail). Subsequently, 20 µg of protein lysates were applied to SDS-PAGE. After transferring the proteins to a PVDF membrane, samples were incubated with the appropriate antibodies, according to standard western blot protocol.
Transfected cells were fixed with 100% methanol for 20 min at −20°C. After washing with PBS and subsequent blocking with blocking buffer (PBS+0.05% BSA), fixed cells were incubated with anti-β-catenin antibody for 2 h at room temperature. […] After washing with PBS, expression of β-catenin, GFP, and DAPI were analyzed using fluorescence microscopy.
Supplementary file pone.0004046.s001.tif: Figure S1 Cytosolic overexpression of the LRP6 constructs in HepG2 cells. […] Control, miniCL and miniCLMT were detected through the green fluorescence from GFP. β-Catenin was detected using an anti-β-catenin antibody, and the nuclei were detected by DAPI staining. […]

A549 cells [3] = assay: Western blot of β-catenin in transfected A549 cells; assay type: cell-based; conditions: GFP fusion, 24 h
Description: as §1

HepG2 cells [4] = assay: Western blot of β-catenin in transfected HepG2 cells; assay type: cell-based; conditions: GFP fusion, 24 h
Description: as §2
Supplementary file pone.0004046.s002.tif: Figure S2 Western blotting analysis from the transfected HepG2 cells. Labels at the left side of blots indicate the antibody used for detection of the corresponding protein. The endogenous β-catenin level was detected by an anti-β-catenin antibody. p-GS indicates the level of the phosphorylated GS by GSK3β, detected by anti-glycogen synthase (Ser641) antibody. p-S9-GSK3β indicates the phosphorylated Ser9 of GSK3β, and was detected by anti-phospho GSK3β (Ser9) antibody. Levels of transfected proteins were detected using monoclonal GFP antibody, indicated by GFP. Pan-Ras is shown as a loading control. (0.05 MB TIF) Click here for additional data file.

glycogen synthase = assay: Western blot of phosphorylated glycogen synthase (Ser641) in transfected A549 cells; assay type: cell-based; conditions: GFP fusion, anti-glycogen synthase (Ser641)
Description: as §1

GSK3β [5] = assay: Western blot of GSK3β phosphorylated at Ser9 in transfected A549 cells; assay type: cell-based; conditions: GFP fusion
Description: as §1

Wnt/β-catenin signaling = assay: TOP-flash luciferase assay in 293 cells; assay type: cell-based; conditions: 24 h after transfection, 4 independent experiments, p<0.01 vs empty vector and vs miniCLMT
Description: as §1

GSK3β [6] = target: T1, GSK3β (Mus musculus, UniProt Q9WV60); assay: Far western binding of GSK3β to miniCL in presence of Axin GBD; conditions: phosphorylated GST-miniCL; GSK3β 0.1 µg/ml; GST-Axin GBD 0, 10 µM; three independent experiments
T1 construct: The catalytic domains of mouse GSK3β (residues 27–393) and CK1ε (residues 1–319) were expressed and purified; made in house
Description: Figure 4 Phosphorylation-dependent binding of the LRP6 intracellular region to GSK3β in the absence and presence of Axin. (A) GST (Lane 1), GST-fused miniCL (Lane 3; GST-miniCL), GST-fused miniCLMT (Lane 5; GST-miniCLMT), and their phosphorylated forms (Lanes 2, 4, 6; indicated by “phos”) were loaded onto an SDS-polyacrylamide gel, and then transferred to PVDF membrane (Left top). […] The phosphorylated protein bands show an upshifted mobility on the gel. The PVDF membrane was incubated with 1 µg/ml of GSK3β to allow GSK3β to bind to the proteins in the membrane. The bound GSK3β was visualized on the transferred proteins by western blotting using an anti-GSK3β antibody (Left bottom), and the GSK3β protein used to obtain the phosphorylated forms of each protein is indicated by GSK3β*. The band intensities of bound GSK3β were measured from the three independent experiments (Right). […] The phosphorylated GST-fused miniCL was transferred to PVDF membrane, and the membrane was incubated with GSK3β (0.1 µg/ml) and GST-fused Axin GBD domain protein (0, 10 µM). Error bars indicate the standard deviation from three independent experiments. […]
GST-fusion proteins (GST-miniCL, GST-miniCLMT, GST-PPPSPxS, GST-PPPAPxS) were subjected to SDS-PAGE and transferred to a PVDF membrane. […] The binding of GSK3β was detected with rabbit anti-GSK3β antibody and secondary HRP-conjugated goat anti-rabbit IgG (Pierce).

LRP6 miniCL = assay: Far western binding of Axin fragment to LRP6 miniCL with GSK3β; set-up: species or system human; conditions: GST-miniCL 15 µg on PVDF; GSK3β 2 µg/ml and/or His-Axin 12 µg/ml
Description: Figure 4 Phosphorylation-dependent binding of the LRP6 intracellular region to GSK3β in the absence and presence of Axin. (A) GST (Lane 1), GST-fused miniCL (Lane 3; GST-miniCL), GST-fused miniCLMT (Lane 5; GST-miniCLMT), and their phosphorylated forms (Lanes 2, 4, 6; indicated by “phos”) were loaded onto an SDS-polyacrylamide gel, and then transferred to PVDF membrane (Left top). […] The phosphorylated protein bands show an upshifted mobility on the gel. The PVDF membrane was incubated with 1 µg/ml of GSK3β to allow GSK3β to bind to the proteins in the membrane. The bound GSK3β was visualized on the transferred proteins by western blotting using an anti-GSK3β antibody (Left bottom), and the GSK3β protein used to obtain the phosphorylated forms of each protein is indicated by GSK3β*. The band intensities of bound GSK3β were measured from the three independent experiments (Right). […] The phosphorylated GST-fused miniCL was transferred to PVDF membrane, and the membrane was incubated with GSK3β (0.1 µg/ml) and GST-fused Axin GBD domain protein (0, 10 µM). Error bars indicate the standard deviation from three independent experiments. (C) GSK3β mediates the binding of an Axin fragment to LRP6 miniCL region. […]

T1 sequence (Q9WV60 27-393): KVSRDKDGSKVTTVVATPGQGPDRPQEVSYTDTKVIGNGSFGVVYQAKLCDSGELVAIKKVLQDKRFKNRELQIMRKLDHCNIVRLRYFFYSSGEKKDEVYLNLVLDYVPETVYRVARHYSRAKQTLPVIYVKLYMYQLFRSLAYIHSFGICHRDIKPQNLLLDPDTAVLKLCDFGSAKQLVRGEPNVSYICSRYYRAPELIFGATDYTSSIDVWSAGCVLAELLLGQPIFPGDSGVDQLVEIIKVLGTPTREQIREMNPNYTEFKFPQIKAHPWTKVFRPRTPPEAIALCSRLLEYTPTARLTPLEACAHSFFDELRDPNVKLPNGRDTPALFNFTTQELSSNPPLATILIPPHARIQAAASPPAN

Molecule	Total cellular β-catenin and nuclear translocation (A549 cells [1])	Total cellular β-catenin and nuclear translocation (HepG2 cells [2])	β-catenin level (western blot) (A549 cells [3])	β-catenin level (western blot) (HepG2 cells [4])	Phosphorylation of glycogen synthase (p-GS) (glycogen synthase)	Phosphorylation of Ser9 in GSK3β (GSK3β [5])	TOP-flash luciferase activity (Wnt/β-catenin signaling)	Effect of Axin GBD on GSK3β binding to miniCL (GSK3β [6])	Binding to LRP6 miniCL (LRP6 miniCL)
miniCL: LRP6 miniCL (residues 1470–1510 of human LRP6), GFP fusion in cells (SSSSSSTKGTYFPAILNPPPSPATERSHYTMEFGYSSNSPS; not fully specified; also: GFP fusion in cells (GFP left off))	dramatically increased the total amount of cellular β-catenin and promoted the translocation of β-catenin into the nucleus	dramatically increased the total amount of cellular β-catenin and promoted the translocation of β-catenin into the nucleus	increased level of β-catenin	increased level of β-catenin	suppressed phosphorylation of glycogen synthase	without the induction of phosphorylation of Ser9 in GSK3β	significantly induced TOP-flash activity; also recorded: significantly activated Wnt/β-catenin signaling	does not affect the binding of GSK3β; also recorded: not affected by the presence of Axin	–
Axin fragment: His-tagged Axin fragment (residues 512–650) including the GBD and the β-catenin binding domain (protein, UniProt O35625 512-650, looked up, fragment, His tag) GKHVPKLGLKLDTAGLHHHRHVHHHVHHNSARPKEQMEAEVARRVQSSFSWGPETHGHAKPRSYSENAGTTLSAGDLAFGGKTSAPSKRNTKKAESGKNANAEVPSTTEDAEKNQKIMQWIIEGEKEISRHRKAGHGSS	–	–	–	–	–	–	–	–	bound to LRP6 miniCL only in the presence of GSK3β; also recorded: bound to the LRP6 miniCL fragment only when GSK3β was co-incubated
